# Reference: patent EP4722209A1 (Beijing Shenogen Pharma Group, priority 2023, dated 2024)
# Target: T1, ERα (Homo sapiens, UniProt P03372)
# T1 construct: host or cells: MCF-7
# T1 sequence (P03372 1-595): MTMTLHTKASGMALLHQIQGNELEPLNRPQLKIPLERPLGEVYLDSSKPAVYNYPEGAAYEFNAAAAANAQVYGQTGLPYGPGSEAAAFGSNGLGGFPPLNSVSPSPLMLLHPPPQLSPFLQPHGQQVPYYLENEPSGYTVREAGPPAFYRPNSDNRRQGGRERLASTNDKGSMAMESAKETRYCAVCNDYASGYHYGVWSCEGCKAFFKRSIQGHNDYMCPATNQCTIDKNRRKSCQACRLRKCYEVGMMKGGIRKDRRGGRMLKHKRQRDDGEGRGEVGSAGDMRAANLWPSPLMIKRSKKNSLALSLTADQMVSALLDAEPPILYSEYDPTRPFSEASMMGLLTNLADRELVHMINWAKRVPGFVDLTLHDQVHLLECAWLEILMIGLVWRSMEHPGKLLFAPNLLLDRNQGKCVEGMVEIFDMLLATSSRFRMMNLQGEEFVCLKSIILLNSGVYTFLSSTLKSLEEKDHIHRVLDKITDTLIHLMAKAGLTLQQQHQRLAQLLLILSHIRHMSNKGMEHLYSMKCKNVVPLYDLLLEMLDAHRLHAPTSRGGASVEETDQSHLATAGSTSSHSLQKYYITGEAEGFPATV
# Experiment: ER degradation activity in MCF-7 cells (Western blot, grayscale intensity)
# Type: cell-based
# Conditions: 6 hours treatment, 1 nM to 100 nM, concentration required to degrade 50% of the target protein
# Description: ERα-positive human breast cancer cells MCF-7 (ATCC, HTB-22) were cultured with EMEM medium (ATCC, catalog number 30-2003) containing 10% fetal bovine serum (Thermo Fisher, catalog number 10099141) and 10 µg/mL bovine insulin in 25 cm^2 or 75 cm^2 plastic tissue culture flasks in a 37 °C incubator with 5% CO2. The cells were passaged 2 to 3 times per week. MCF-7 cells were seeded in 6-well plate at 1×10^6 cells/well with 1.8 mL culture medium per well, and cultured in a 37 °C incubator with 95% air and 5% CO2. After 24 hours, the test compounds were added: the compounds were serially diluted 10-fold in DMSO starting from 10 mM (dissolved in DMSO) to prepare gradient stock solutions. A complete culture medium containing 1% DMSO was prepared for further dilution, temporarily named as the "dilution buffer." Working solutions were prepared by diluting each stock solution with 99 times the volume of dilution buffer, that is, by adding 1 µL of the 10 mM stock solution to 99 µL of the dilution buffer and mixing thoroughly.
# Finally, […] of the working solution was added to the cell-seeded culture plate. The final concentration of DMSO in the cell culture medium was 0.2%, and the final concentration of the test compounds ranged from 1 nM to 100 nM. The cells were then incubated at 37 °C for 6 hours.
# The culture medium was removed, and the cells were washed twice with ice cold PBS. 1 mL of PBS was added to each well, and the cells were collected into EP tubes using a cell scraper, and centrifuged at 4 °C, 4000 rpm for 5 minutes. PBS was aspirated. Total protein was extracted using the Minute™ Mammalian Tissue/Cell Total Protein Extraction Reagent. The protein concentration was measured using the BCA protein assay kit. 30 µg of protein was taken and mixed with 5× SDS-PAGE loading buffer, boiled for 10 minutes, and cooled. The samples were loaded into wells of a precast gel, with constant voltage at 80 V for 30 minutes, and then the voltage was changed to 120 V after the samples entered the resolving gel. The "sandwich" (sponge - filter paper - gel - membrane - filter paper - sponge) was assembled for Bio-Rad's Transblot. Transfer was performed for 1 hour at 0.3 amp at 4 °C. The sample was blocked with 5% fat-free milk for 1 hour, and incubated with Estrogen Receptor alpha Antibody (Thermo Fisher, catalog number MA5-14104) overnight at 4 °C. The membrane was washed with TBST to remove non-specifically bound antibodies, and then incubated with goat anti-mouse IgG-HRP secondary antibody for 1 hour at room temperature, and was visualized using ECL. The protein degradation level was calculated by measuring the grayscale intensity.
# The DC50 values (i.e., the concentration of the test compounds required to degrade 50% of the target protein) were calculated and shown in Table 1. A corresponds to a DC50 value below 10 nM, B corresponds to a DC50 value greater than 10 nM and less than 100 nM, and C corresponds to DC50 values greater than 100 nM. Table 1. The DC50 values of exemplary compounds in MCF-7 cells
row,SMILES,DC50 [nM]
1,"CC1(C)CC(=C(c2ccc(N3CCC(CN4CCN(c5cccn6c(N7CCC(=O)NC7=O)cnc56)CC4)CC3)nc2)c2ccc3[nH]nc(F)c3c2)CC(C)(C)O1 [Compound 96, 1-(8-(4-((1-(5-((3-fluoro-1H-indazole-5-yl)(2,2,6,6-tetramethyltetrahydro-4H-pyran-4-ylidene)methyl)pyridin-2-yl)piperidin-4-yl)methyl)piperazin-1-yl)imidazole [1,2-a]pyridin-3-yl)dihydropyrimidine-2,4 (1H, 3H) - dione]",< 10
2,CN(CC1CCN(c2ccc(C(=C3CC(C)(C)OC(C)(C)C3)c3ccc4[nH]nc(F)c4c3)cn2)CC1)C1CCN(c2cccn3c(N4CCC(=O)NC4=O)cnc23)CC1 [Compound 97],10 to 100
3,CN(CC1CCN(c2ccc(C(=C3CC(C)(C)OC(C)(C)C3)c3ccc4[nH]nc(F)c4c3)cn2)CC1)C1CCN(c2ccn3c(N4CCC(=O)NC4=O)cnc3c2)CC1 [Compound 98],> 100
4,Cn1c(=O)n(C2CCC(=O)NC2=O)c2cccc(C3CCN(CC4CCN(c5ccc(C(=C6CC(C)(C)OC(C)(C)C6)c6ccc7[nH]nc(F)c7c6)cn5)CC4)CC3)c21 (stereo not drawn) [Compound 99],10 to 100
5,Cn1c(=O)n(C2CCC(=O)NC2=O)c2cccc(C#CCOC3CCN(c4ccc(C(=C5CC(C)(C)OC(C)(C)C5)c5ccc6[nH]nc(F)c6c5)cn4)CC3)c21 (stereo not drawn) [Compound 100],> 100
6,Cn1c(=O)n(C2CCC(=O)NC2=O)c2cccc(C#CCN3CCN(c4ccc(C(=C5CC(C)(C)OC(C)(C)C5)c5ccc6[nH]nc(F)c6c5)cn4)CC3)c21 (stereo not drawn) [Compound 101],> 100
7,CC1(C)CC(=C(c2ccc3[nH]nc(F)c3c2)c2c(F)cc(N3CCN(CC4CCN(c5ccc6c(c5)C(=O)N(C5CCC(=O)NC5=O)C6=O)CC4)CC3)cc2F)CC(C)(C)O1 (stereo not drawn) [Compound 102],> 100
8,CC1(C)CC(=C(c2ccc(N3CCC(CN4CCN(c5ccc6c(c5)C(=O)N(C5CCC(=O)NC5=O)C6=O)CC4)CC3)nc2)c2ccc3[nH]nc(F)c3c2)CC(C)(C)O1 (stereo not drawn) [Compound 103],10 to 100
9,CC1(C)CC(=C(c2ccc(N3CCC(N4CCN(c5ccc6c(c5)C(=O)N(C5CCC(=O)NC5=O)C6=O)CC4)CC3)nc2)c2ccc3[nH]nc(F)c3c2)CC(C)(C)O1 (stereo not drawn) [Compound 104],> 100
10,CC1(C)CC(=C(c2ccc(N3CCN(C4CCN(c5ccc6c(c5)C(=O)N(C5CCC(=O)NC5=O)C6=O)CC4)CC3)nc2)c2ccc3[nH]nc(F)c3c2)CC(C)(C)O1 (stereo not drawn) [Compound 105],< 10
11,CC1(C)CC(=C(c2ccc(N3CCN(C4CN(c5ccc6c(c5)C(=O)N(C5CCC(=O)NC5=O)C6=O)C4)CC3)nc2)c2ccc3[nH]nc(F)c3c2)CC(C)(C)O1 (stereo not drawn) [Compound 106],> 100
12,CC1(C)CC(=C(c2ccc(N3CCC(CN4CCN(c5cccc(NC6CCC(=O)NC6=O)c5)CC4)CC3)cc2)c2ccc3[nH]nc(F)c3c2)CC(C)(C)O1 (stereo not drawn) [Compound 107],> 100
13,CC1(C)CC(=C(c2ccc(N3CCN(C4CCN(c5cccc(NC6CCC(=O)NC6=O)c5)CC4)CC3)cc2)c2ccc3[nH]ncc3c2)CC(C)(C)O1 (stereo not drawn) [Compound 108],> 100
14,CC1(C)CC(=C(c2ccc(N3CC4(CCC(N5CCN(c6ccc7c(c6)CN(C6CCC(=O)NC6=O)C7=O)CC5)CC4)C3)nc2)c2ccc3[nH]nc(F)c3c2)CC(C)(C)O1 (stereo not drawn) [Compound 109],< 10
15,CC1(C)CC(=C(c2ccc(N3CCC(CN4CCN(c5ccc6c(c5)CN(C5CCC(=O)NC5=O)C6=O)CC4)CC3)nc2)c2ccc3c(F)n[nH]c3c2)CC(C)(C)O1 (stereo not drawn) [Compound 112],10 to 100
16,CC1(C)CC(=C(c2ccc(N3CCC(CN4CCN(c5ccc6c(c5)CN(C5CCC(=O)NC5=O)C6=O)CC4)CC3)nc2)c2ccc3cncn3c2)CC(C)(C)O1 (stereo not drawn) [Compound 113],> 100
17,CC1(C)CC(=C(c2ccc(N3CCC(CN4CCN(c5ccc6c(c5)CN(C5CCC(=O)NC5=O)C6=O)CC4)CC3)nc2)c2cccc(O)c2)CC(C)(C)O1 (stereo not drawn) [Compound 114],10 to 100

row,SMILES,DC50 [nM]
1,CC1(C)CC(=C(c2ccc(N3CCC(CN4CCN(c5ccc(NC6CCC(=O)NC6=O)c(F)c5)CC4)CC3)cc2)c2ccc3[nH]nc(F)c3c2)CC(C)(C)O1 (stereo not drawn) [Compound 115],> 100
2,CC1(C)CC(=C(c2ccc(N)nc2)c2ccc(N3CCC(CN4CCN(c5ccc6c(c5)CN(C5CCC(=O)NC5=O)C6=O)CC4)CC3)nc2)CC(C)(C)O1 (stereo not drawn) [Compound 116],> 100
3,CC1(C)CC(=C(c2ccc(N3CCC(CN4CCN(c5ccc6c(c5)C(=O)N(C5CCC(=O)NC5=O)C6)CC4)CC3)nc2)c2ccc3[nH]nc(F)c3c2)CC(C)(C)O1 (stereo not drawn) [Compound 118],> 100
4,CC1(C)CC(=C(c2ccc(N3CCC(CN4CCN(c5ccc(C(=O)N[C@H]6CCC(=O)NC6=O)c(F)c5)CC4)CC3)nc2)c2ccc3[nH]nc(F)c3c2)CC(C)(C)O1 [Compound 122],< 10
5,CC1(C)CC(=C(c2ccc(N3CCC4(CC3)CC(N3CCN(c5ccc(C(=O)N[C@H]6CCC(=O)NC6=O)c(F)c5)CC3)C4)nc2)c2ccc3[nH]nc(F)c3c2)CC(C)(C)O1 [Compound 123],10 to 100
6,Cn1nc(N2CCC(=O)NC2=O)c2cc(F)c(N3CCN(CC4CCN(c5ccc(C(=C6CC(C)(C)OC(C)(C)C6)c6ccc7[nH]nc(F)c7c6)cn5)CC4)CC3)cc21 [Compound 124],10 to 100
7,Cn1nc(N2CCC(=O)NC2=O)c2cc(F)c(N3CCN(C4CC5(CCN(c6ccc(C(=C7CC(C)(C)OC(C)(C)C7)c7ccc8[nH]nc(F)c8c7)cn6)CC5)C4)CC3)cc21 [Compound 125],< 10
8,CC1(C)CC(=C(c2ccc(N3CCC(CN4CCN(c5ccc(C(=O)N[C@H]6CCC(=O)NC6=O)cc5)CC4)CC3)nc2)c2ccc3[nH]nc(F)c3c2)CC(C)(C)O1 [Compound 126],< 10
9,CC1(C)CC(=C(c2ccc(N3CCC4(CC3)CC(N3CCN(c5ccc(C(=O)N[C@H]6CCC(=O)NC6=O)cc5)CC3)C4)nc2)c2ccc3[nH]nc(F)c3c2)CC(C)(C)O1 [Compound 127],< 10
10,CC1(C)CC(=C(c2ccc(N3CCC(CN4CCN(c5ccc(C(=O)N[C@H]6CCC(=O)NC6=O)nc5)CC4)CC3)nc2)c2ccc3[nH]nc(F)c3c2)CC(C)(C)O1 [Compound 128],10 to 100
11,CC1(C)CC(=C(c2ccc(N3CCC4(CC3)CC(N3CCN(c5ccc(C(=O)N[C@H]6CCC(=O)NC6=O)nc5)CC3)C4)nc2)c2ccc3[nH]nc(F)c3c2)CC(C)(C)O1 [Compound 129],10 to 100
12,CC1(C)CC(=C(c2ccc(N3CCC(CN4CCN(c5ccc6c(c5)C(=O)N([C@@H]5CCC(=O)NC5=O)C6=O)CC4)CC3)cc2)c2ccc3[nH]ncc3c2)CC(C)(C)O1 [Compound 130],< 10
13,CC1(C)CC(=C(c2ccc(N3CCC(CN4CCN(c5ccc6c(c5)C(=O)N([C@H]5CCC(=O)NC5=O)C6=O)CC4)CC3)cc2)c2ccc3[nH]ncc3c2)CC(C)(C)O1 [Compound 131],< 10
14,CC1(C)CC(=C(c2ccc(N3CCC(N4CCN(c5ccc6c(c5)CN([C@@H]5CCC(=O)NC5=O)C6=O)CC4)CC3)cc2)c2ccc3[nH]nc(F)c3c2)CC(C)(C)O1 [Compound 134],10 to 100
15,CC1(C)CC(=C(c2ccc(N3CCC(N4CCN(c5ccc6c(c5)CN([C@H]5CCC(=O)NC5=O)C6=O)CC4)CC3)cc2)c2ccc3[nH]nc(F)c3c2)CC(C)(C)O1 [Compound 135],10 to 100
16,CC1(C)CC(=C(c2ccc(N3CCC(CN4CCN(c5ccc6c(c5)CN([C@@H]5CCC(=O)NC5=O)C6=O)CC4)CC3)nc2)c2ccc3[nH]ncc3c2)CC(C)(C)O1 [Compound 136],< 10
